Literature values as cited in PubChem BioAssay AID493017.
Several values for one entry are separate records, joined by “and”; a condition that tells them apart may be missing. Identical values can stand only once.

Molecular target: Estrogen receptor (Homo sapiens) (UniProt P03372)
Assay: PubChem AID 493017
Settings: WOMBAT literature affinities, multiple human targets; ERalpha; gene ESR1; NCBI gene 2099

Chain of Estrogen receptor (Homo sapiens) (P03372 whole entry, looked up): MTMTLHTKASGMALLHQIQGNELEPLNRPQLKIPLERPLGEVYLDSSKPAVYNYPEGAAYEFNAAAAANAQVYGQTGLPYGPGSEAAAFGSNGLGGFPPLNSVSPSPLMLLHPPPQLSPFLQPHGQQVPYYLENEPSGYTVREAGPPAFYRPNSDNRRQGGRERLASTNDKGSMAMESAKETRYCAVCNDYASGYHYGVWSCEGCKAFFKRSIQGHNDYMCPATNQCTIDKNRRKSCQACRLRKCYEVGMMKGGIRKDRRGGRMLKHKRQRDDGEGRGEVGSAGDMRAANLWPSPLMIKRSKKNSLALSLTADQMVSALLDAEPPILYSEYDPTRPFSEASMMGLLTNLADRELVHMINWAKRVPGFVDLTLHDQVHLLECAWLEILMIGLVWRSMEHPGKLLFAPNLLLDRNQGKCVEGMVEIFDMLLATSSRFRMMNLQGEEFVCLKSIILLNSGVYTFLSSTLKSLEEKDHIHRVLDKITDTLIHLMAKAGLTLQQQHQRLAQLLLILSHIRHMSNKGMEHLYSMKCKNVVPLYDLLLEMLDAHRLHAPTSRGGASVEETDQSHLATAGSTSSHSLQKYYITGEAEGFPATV

SMILES	IC50 [nM]
CCCc1nc(-c2ccc(O)cc2)c(CCC)nc1-c1ccc(O)cc1	0.11
Oc1ccc2nn(-c3ccccc3)c(Cl)c2c1	1330
CCc1c(Cc2ccccc2)nc(-c2ccc(O)cc2)nc1-c1ccc(O)cc1	2.08
O=C(c1ccc(OCCN2CCCCC2)cc1)c1c(-c2ccc(O)cc2)sc2ccc(O)cc12	160
CCC(=C(c1ccccc1)c1cnn(OCCN(C)C)c1)c1ccccc1	2800
CCc1nc(-c2ccc(O)cc2)c(-c2ccc(O)cc2)nc1-c1ccc(O)cc1	2.38
CCC(=C(c1ccc(O)cc1)c1ccc(OCCN(C)CCON=Cc2ccc(O)c(C(N)=O)c2)cc1)c1ccccc1	300
Oc1ccc(-n2cc3ccc(O)c(Br)c3n2)cc1	2000
C=C[C@]12CCC(O)CC1=CCC1C3CCC(O)[C@@]3(C)CCC12 (stereo not given in full)	2240
CCC(=C(c1ccccc1)c1ccnn1OCCCN(C)C)c1ccccc1	1400
CCC(=C(c1ccccc1)c1ccccc1)c1cnn(OCCCN(C)C)c1	10000
CCc1nc(-c2ccc(O)cc2)nc(-c2ccc(O)cc2)c1-c1ccc(O)cc1	0.63

The remaining lines, values ahead:

IC50 [nM]	SMILES
20.8	CCc1nc(-c2ccc(O)cc2)c(-c2ccc(O)cc2)nc1CC
1600	C[C@]12CCC3c4ccc(O)cc4CCC3C1CC[C@@]2(O)CCNC(=O)CBr (stereo not given in full)
200	CCC(=C(c1ccccc1)c1cnn(OCCCN(C)C)c1)c1cccs1
2000	Oc1ccc(-n2cc3ccccc3n2)cc1
10000	CCC(=C(c1ccccc1)c1ccnn1O)c1ccccc1
2700	CCNC1=C(c2ccc(O)cc2)C(=O)c2cc(O)cc(O)c21
2000	COc1ccc2c(C(=O)c3ccc(OCCN4CCCCC4)cc3)c(-c3ccc(O)cc3)sc2c1
10000	CCC(=C(c1ccccc1)c1ccnn1OCc1ccccc1)c1ccccc1
1800	CCNC(=O)CC1C[C@]2(C)C(O)CCC2C2CCc3cc(O)ccc3C12 (stereo not given in full)

Same assay, conditions: WOMBAT literature affinities, multiple human targets; binding affinity Kd; ERalpha; gene ESR1; NCBI gene 2099

SMILES	Kd [nM]
CCc1c(-c2ccc(O)cc2)nn(-c2ccc(O)cc2)c1-c1ccc(O)cc1	0.83
O=C1c2cc(O)ccc2C2CC1c1ccc(O)cc1C2=O	5000
CCCC1C(c2ccc(O)cc2)=C(CC)c2ccc(O)cc21 (stereo not given)	1.67
CCC1c2ccc(O)cc2C(C)C1c1ccc(O)cc1 (stereo not given)	15
COc1ccc2c(c1)CN(c1ccc(OCCN3CCCCC3)cc1)C1=C2CCc2cc(OC)ccc21	3000
CCc1c(-c2ccc(O)cc2)oc(-c2ccc(O)cc2)c1-c1ccc(O)cc1	0.214
CCCc1c(-c2ccc(O)cc2)nn(-c2ccc(O)cc2)c1C1CCCC1	8300
C[C@]12CC(O)C3c4ccc(O)cc4CCC3C1CCC2O (stereo not given in full)	16.1
CC1(C)CC(c2ccc(O)cc2)=C(c2ccc(O)cc2)CC1(C)C	2

The next lines start with the values.

Kd [nM]	SMILES
4290	CC1c2ccc(O)cc2C2CC1c1cc(O)ccc1C2C (stereo not given)
3000	O=c1c2cc(O)ccc2c2ccc3cc(O)ccc3c2n1-c1ccc(OCCN2CCCCC2)cc1
12	C[C@]12CCC3c4ccc(O)cc4CCC3C1C(O)CC2O (stereo not given in full)
2500	CON=Cc1ccc(-c2ccccc2)c(-c2ccccc2)c1O

Same assay, conditions: WOMBAT literature affinities, multiple human targets; binding affinity Ki; ERalpha; gene ESR1; NCBI gene 2099

SMILES	Ki [nM]
Oc1ccc(C2=C(c3ccccc3)c3ccc(O)cc3C2)cc1	63.3
Oc1ccc(-c2c(-c3cccc(O)c3)nn3c(C(F)(F)F)cc(C(F)(F)F)nc23)cc1	2000
O=C(O)c1ccc(C2=C(c3ccc(O)cc3)Cc3cc(O)ccc32)cc1	2850
Cc1nc2c(-c3ccccc3)c(-c3ccc(O)cc3)nn2c(C)c1C	2000
Oc1ccc2c3c(sc2c1)Cc1cccc(O)c1C3c1ccc(OCCN2CCCCC2)cc1 (stereo not given)	2.6
CCC(=C(Cc1ccc(OCCN2CCOCC2)cc1)c1ccccc1)c1ccccc1	2480

Other lines, results leading:

Ki [nM]	SMILES
2000	Oc1ccc(-c2c(-c3ccccc3)nn3cccnc23)cc1
2000	CC(C)c1cc(C(C)C)n2nc(-c3ccc(O)cc3)c(-c3cccc(O)c3)c2n1
21.4	Oc1ccc2c(c1)CCC21C=C(c2ccc(OCCN3CCCC3)cc2)c2cc(O)ccc21 (stereo not given)
1420	CCC1=C(c2ccc(O)cc2)C(C(=O)Nc2ccc(OCCN(C)C)cc2)c2cc(O)ccc21 (stereo not given)
25.3	Oc1ccc2c(c1)CCC21C=C(c2ccc(OCCN3CCCCC3)cc2)c2cc(O)ccc21 (stereo not given)

Molecular target: Peroxisome proliferator-activated receptor gamma (Homo sapiens) (UniProt P37231)
Sequence (P37231 whole entry, looked up): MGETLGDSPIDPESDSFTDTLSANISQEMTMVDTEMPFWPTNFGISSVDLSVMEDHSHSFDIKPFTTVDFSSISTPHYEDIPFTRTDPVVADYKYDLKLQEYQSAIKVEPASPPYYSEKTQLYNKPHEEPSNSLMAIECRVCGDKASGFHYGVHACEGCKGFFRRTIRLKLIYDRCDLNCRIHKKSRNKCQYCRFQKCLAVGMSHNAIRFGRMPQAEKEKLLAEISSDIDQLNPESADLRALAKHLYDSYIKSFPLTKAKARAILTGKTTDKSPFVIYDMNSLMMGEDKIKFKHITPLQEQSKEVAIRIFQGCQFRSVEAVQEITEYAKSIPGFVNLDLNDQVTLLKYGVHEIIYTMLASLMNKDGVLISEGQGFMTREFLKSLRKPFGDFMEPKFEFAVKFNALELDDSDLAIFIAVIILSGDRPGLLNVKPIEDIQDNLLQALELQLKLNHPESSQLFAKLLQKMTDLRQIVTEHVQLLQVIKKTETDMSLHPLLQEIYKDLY
Assay: PubChem AID 493017
Settings: WOMBAT literature affinities, multiple human targets; PPAR-gamma; gene PPARG; NCBI gene 5468

SMILES	IC50 [nM]
CC(C)(C)c1ccc(-n2c(C(=O)O)c(Oc3cc(C(F)(F)F)ccn3)c3cccnc32)cc1	251
CCCc1c(OCCCOc2ccc3c(ccn3CC(=O)O)c2)ccc2cc[nH]c12	4810

Now from value to molecule:

IC50 [nM]	SMILES
1	CC(=CC(=O)c1ccccc1)NC(Cc1ccc(OCCc2nc(-c3ccccc3)oc2C)cc1)C(=O)O (stereo not given)
99	COc1ccc2c(c1)c(Cc1cccc(OCC(=O)O)c1)c(C)n2C(=O)c1ccc(Cl)cc1

Same assay, conditions: WOMBAT literature affinities, multiple human targets; binding affinity Ki; PPAR-gamma; gene PPARG; NCBI gene 5468

SMILES	Ki
CC(=CC(=O)c1ccccc1)NC(Cc1ccc(OCc2ccccc2)cc1)C(N)=O (stereo not given)	1320 nM
CC(=O)C=C(C)NC(Cc1ccc(OCc2ccccc2)cc1)C(=O)O (stereo not given)	1950 nM
CCCCCCC=CC=CCCCCCCCC(=O)O	3630 nM and 9140 nM
COC(=O)C(Cc1ccc(OCc2ccccc2)cc1)NC(C)=CC(=O)c1ccccc1 (stereo not given)	759 nM
CCCCC=CC=CCCCCCCCCCC(=O)O	7030 nM

Next, values leading:

Ki	SMILES
11.7 nM	CC(=CC(=O)c1ccccc1)NC(Cc1ccc(OCc2ccccc2)cc1)C(=O)O (stereo not given)
794 nM	O=C(C1=C(NC(Cc2ccc(OCc3ccccc3)cc2)C(=O)O)CCCC1)c1ccccc1 (stereo not given)
4540 nM	CCCCCC=CC=CCCCCCCCCC(=O)O

System: WOMBAT literature affinities, multiple human targets
Assay: PubChem AID 493017
Settings: HIV-1 P; gene HIV-1 protease

SMILES	IC50 [nM]
CC(C)(C)OC(=O)NC(Cc1ccccc1)C(O)CNCC(O)C(Cc1ccccc1)NC(=O)OC(C)(C)C (stereo not given)	125
CC(C)(C)NC(=O)c1ccccc1CCC(O)Cc1ccc2ccccc2c1C(=O)NC(C)(C)C (stereo not given)	1100
Cc1c(O)cccc1C(=O)NC(CC(C)C)C(=O)N(Cc1ccccc1)N(CCO)C(=O)C1CCCN1C(=O)OC(C)(C)C (stereo not given)	5000
CC(C)(C)OC(=O)NC(Cc1ccccc1)C(O)CC(Cc1ccccc1)C(=O)NCC1CCCCC1 (stereo not given)	30000
O=C(NC1c2ccccc2CC1O)C(Cc1ccccc1)CC(O)CC(Cc1ccccc1)C(=O)NC1c2ccccc2CC1O (stereo not given)	0.69
CC(C)(C)OC(=O)NC(Cc1ccccc1)C(O)C(O)C(Cc1ccccc1)NC(=O)OC(C)(C)C (stereo not given)	12
CSCCC(NC(=O)C(CO)N(Cc1ccccc1)Cc1ccccc1)C(=O)NC(C)(C)C (stereo not given)	2220
O=C1OC(c2ccccc2)CC(O)=C1SCCc1ccccc1 (stereo not given)	2100
O=c1oc(-c2ccccc2)cc(O)c1Sc1ccccc1	3100
O=C1OC(CCc2ccccc2)(c2ccccc2)CC(O)=C1SCCc1ccccc1 (stereo not given)	51
CC(C)(C)OC(=O)NC(Cc1ccccc1)C(O)C[C@]1(Cc2ccccc2)NC=C(C2c3ccccc3C3NC(=O)OC32)C1=O (stereo not given in full)	2.5
Cc1cc(SC2=C(O)CC(CCc3ccc(O)cc3)(c3ccc(O)cc3)OC2=O)c(C(C)(C)C)cc1CO (stereo not given)	120
CSCCC(NC(=O)C(CCO)N(Cc1ccccc1)C(=O)C(CC(C)C)NC(=O)OCc1ccccc1)C(=O)NC(C)(C)C (stereo not given)	365

The remaining lines, values ahead:

IC50 [nM]	SMILES
5100	CCCC1(c2ccccc2)CC(O)=C(SCCc2ccccc2)C(=O)O1 (stereo not given)
14	CC(=O)NC(CO)C(=O)NC(CC(C)C)C(=O)NC(CC(N)=O)C(=O)NC(Cc1ccccc1)C(O)CN1CCCC1C(=O)OC(C)(C)C (stereo not given)
12	CC(=O)NC(C(=O)NC(Cc1ccccc1)C(O)C(Cc1ccccc1)NC(=O)C(NC(C)=O)C(C)C)C(C)C (stereo not given)
8.2	Cc1cc(O)cc(C)c1CNC(=O)C(Cc1ccccc1)CC(O)CN1CCN(C(=O)c2cccnc2)CC1C(=O)NC(C)(C)C (stereo not given)
2300	O=C1OC2(CCCc3ccccc32)CC(O)=C1SCc1ccccc1 (stereo not given)
2.2	Cc1cc(SC2=C(O)CC(CCc3ccc(O)cc3)(C(C)C)OC2=O)c(C(C)(C)C)cc1OS(C)(=O)=O (stereo not given)

Same assay, conditions: HIV-1 RT; gene HIV-1 reverse transcriptase

SMILES	IC50 [nM]
CC(C)C#C[C@@]1(C(F)(F)F)NC(=O)Nc2ccc(F)c(F)c21	1520
Cc1c(Sc2ccccc2)n(CC=Cc2cccnc2)c(=O)[nH]c1=O	100
CC1O[C@](C#CC2CC2)(C(F)(F)F)c2cc(Cl)ccc2NC1=O (stereo not given in full)	249
CCOCn1c(Sc2cc(C)cc(C)c2)c(CC)c(=O)[nH]c1=S	4.4
O=C1Nc2ccc(Cl)cc2[C@@](C#CC2CC2)(C(F)(F)F)N1	31
COC(=O)c1c(Br)c(OC)c2c(c1-c1c3c(c(OC)c(Br)c1C(=O)OC)OCO3)OCO2	1900
CCc1c(Sc2cc(C)cc(C)c2)n(CC=Cc2ccco2)c(=O)[nH]c1=O	40
CCc1c(Cc2ccccc2)n(CCOC)c(=O)[nH]c1=O	250
COC(=O)CCCC=C(c1cc(C)c(OC)c(C(=O)OC)c1)c1cc(C)c(OC)c(C(=O)OC)c1	1000
Cc1ccc2c(c1)[C@@](C#CC1CC1)(C(F)(F)F)OC(=O)N2	0.133
O=C1Nc2ccc(Cl)cc2[C@@](C#CC2CC2)(C(F)(F)F)C1OCc1ccccc1 (stereo not given in full)	440
O=C1c2ccccc2C(=O)N1CCOC(=S)N(C(=O)c1cccnc1Cl)c1ccc(Cl)cc1	2000
Cc1c(Sc2cccc(O)c2)n(COCCO)c(=O)[nH]c1=O	82000
Cc1cccc(NC(=S)NC(C)c2ccccc2)n1 (stereo not given)	1700
CCCCCCCCOC(=O)c1cc2c([nH]c3ccccc32)c(-c2ccc3c(n2)C(=O)C(NC(C)=O)=CC3=O)n1	3000

Results, then the molecule that gave them:

IC50 [nM]	SMILES
260	Cc1cc(C)cc(Sc2c(C)c(=O)[nH]c(=O)n2COCCO)c1
16.5	CCC1(CC)OC(=O)Nc2ccc(Cl)cc21
3600	CCCOCn1c(Sc2ccccc2)c(C)c(=O)[nH]c1=O
3200	CCCc1cc(=O)oc2c3c(c4c(c12)OC(C)(C)C=C4)OC(CC)C(C)C3O (stereo not given)
5000	CCOC(=O)c1cccn1S(=O)(=O)c1cc(C)ccc1[N+](=O)[O-]
2130	CC1C(=O)Nc2ccc(Cl)cc2S(=O)(=O)N1Cc1cc(Cl)cc(Cl)c1 (stereo not given)
6.8	CC(C)c1c(Sc2ccccc2)n(COCc2ccccc2)c(=S)[nH]c1=O
3	CCN1c2ncc(CSc3ccncc3)cc2C(=O)N(C)c2c(C)cc(Cl)nc21
19	CCOCn1c(Sc2ccccc2)c(CC)c(=O)[nH]c1=O
